Patent publication US20240294659A1, “Method and Compositions for Inducing Differentiation of Myeloid Derived Suppressor Cell to Treat Cancer and Infectious Diseases” (OSE Immunotherapeutics, priority 2014, published 2024)

Legend:
[1] = test system: Hepa1.6 mouse hepatoma cells; test: Hepatocellular carcinoma mice model; format: in vivo; conditions: Sorafenib 40 mg/kg daily oral gavage, day 0 to day 28 (FIG. 10)
Protocol: Eight-weeks-old C57B1/6J male mice received 2.5×10^6Hepa1.6 mouse hepatoma cells in 100 μL through the portal vein, as previously described (Gauttier et al., 2014). Four and eight days after tumour inoculation, mice were injected intraperitoneally with 100 μg of rat anti-CD137 mAb (4-1BB mAb), or with 300 μg of anti-mouse SIRPα monoclonal antibody (clone P84 from Merck Millipore) or both antibodies or an irrelevant control antibody (clone 3G8) 3 times/week for 4 weeks (FIG. 17A) or with 200 μg of the anti-PD-LI mAb (clone 10F-9G2 from BioXCell) or received both antibodies (anti-SIRPα+anti-PDL1) for 4 weeks (FIG. 17B). Sorafenib (Nexavar-Bayer) treated mice received daily 100 μl oral gavage of 40 mg/kg from day 0 to day 28 (FIG. 10). The overall survival was analyzed. Some mice were sacrificed at day 14 after tumor inoculation for leukocytes tumor infiltration quantification and characterization by isolation of non-parenchymal cells of the liver by a Percoll gradient and FACS analysis.

[2] = test system: rat MDSC; test: Rat MDSC two-day culture with anti-SIRPα antibody, with or without GM-CSF, phenotype by flow cytometry; format: cell-based; conditions: two days, GM-CSF 10 ng/ml with or without anti-SIRPα 10 μg/ml (FIG. 4)
Description: Human blood MDSC were characterized and sorted by flow cytometry as follow: CD11b^+CD33^+HLA-DR^low/−CD14^+CD15^− for Mo-MDSC and CD11b^+CD33^+HLA-DR^− CD14^− CD15+ for PMN-MDSC. Rat blood and spleen MDSC were characterized and sorted by flow cytometry as CD11b^+MHC ClassII-NKRP1^int (both Mo-MDSC and PMN-MDSC was included in this phenotype). Mouse MDSC were characterize as follow: CD11b^+MHC Class II-Ly6C^high Ly6G^− for Mo-MDSC and CD11b^+MHC Class II-Ly6C^+Ly6G^+ for PMN-MDSC.
MDSC were purified by flow cytometry according to previously described phenotypes. Purity of cells sorted by flow cytometry was higher than 99%. Freshly purified MDSC were then seeded at 50×10^3 cells/well in 96-well flat-bottomed microtiter plates and cultured for two days in RPMI-1640 medium (supplemented with 2 mM L-glutamine, 100 U/ml penicillin, 0.1 mg/ml streptomycin, 10% heat-inactivated fetal calf serum, 1% nonessential amino acids, 5 mM HEPES, 1 mM sodium pyruvate, and 1 μM 2-mercaptoethanol) and with irrelevant control antibody or anti-SIRPα monoclonal antibody (clone SE7C2 (Santa Cruz Biotechnology) and SE5A5 (Biolegend) for human MDSC or clone ED9 (AbD Serotec) for rat MDSC) at 10 μg/ml. In a different setting, recombinant GM-CSF (10 ng/ml) was also added to force the macrophages/dendritic cells differentiation. […]

Row | Compound | mice rescued (overall survival) [1] [%] | differentiation of MDSC (MHC Class II, CD103, CD11b, CD80) [2]
1 | CNC(=O)c1cc(Oc2ccc(NC(=O)Nc3ccc(Cl)c(C(F)(F)F)c3)cc2)ccn1 [Sorafenib] | 60 | –
2 | GM-CSF: recombinant GM-CSF added to force the macrophages/dendritic cells differentiation | – | induce the differentiation of MDSC in mature MHC Class II^+ myeloids cells
